{
  "source": "patent US11338004B2",
  "about": "“Composition for preventing or treating cranial nerve disease comprising fomes fomentarius extract, fraction thereof, or compound isolated therefrom as active ingredient” (priority 2015, dated 2022)",
  "key": {"[1]": {"assay": "DPPH radical scavenging activity", "method": "The present experiment used the property that the hydrazyl of diphenylpicrylhydrazyl (DPPH) used in the present experiment has a property of easily accepting a hydrogen atom since the nitrogen atom is unstable, so as to react with the antioxidant material to accept the hydrogen atom to lose its own orthochromatism.\nFirst, in order to measure DPPH radical scavenging activity of the Fomes fomentarius fraction, 1.9 ml of 0.2 mM DPPH solution (99.5% ethanol) was added to 0.1 ml of solutions (control: 99.5% ethanol) in which the concentrated dried material of each Fomes fomentarius substance was prepared at 7 concentrations of 10, 20, 40, 80, 160, 320 and 640 μg/ml, respectively. The mixture was shaken with a vortex mixer for 10 seconds and then incubated at 37° C. for 30 minutes. Then, the absorbance was measured at 517 nm using a spectrophotometer.\nAs a positive control drug, L-ascorbic acid was prepared at […] of 10, 20, 40, 80, 160, 320, and 640 μg/mL (99.5% ethanol).\nThe present inventors measured DPPH radicals scavenging activity in the same manner as in Example <2-2> above using nonadecanone (2-nonadecanone) and docosenol (cis-13-Docosenol) compounds found in the above and Fomes fomentarius CHCl3 fraction of the present disclosure.\nFirst, in order to measure DPPH radical scavenging activity of the Acer tegmentosum maxim extract, 1.9 ml of 0.2 mM DPPH solution (99.5% ethanol) was added to 0.1 ml of solutions (control: 99.5% ethanol) in which the concentrated dried material of each Acer tegmentosum maxim material was prepared at 7 concentrations of 10, 20, 40, 80, 160, 320 and 640 μg/ml, respectively. The mixture was shaken with a vortex mixer for 10 seconds and then incubated at 37° C. for 30 minutes. Then, the absorbance was measured at 517 nm using a spectrophotometer.\nAs a positive control, L-ascorbic acid was prepared at […] of 10, 20, 40, 80, 160, 320, and 640 μg/mL (99.5% ethanol).\nFirst, in order to measure DPPH radical scavenging activity of the berchemia berchemiaefolia extract, 1.9 ml of 0.2 mM DPPH solution (99.5% ethanol) was added to 0.1 ml of solutions (control: 99.5% ethanol) in which the concentrated dried material of each berchemia berchemiaefolia material was prepared at 7 concentrations of 10, 20, 40, 80, 160, 320 and 640 μg/ml, respectively. The mixture was shaken with a vortex mixer for 10 seconds and then incubated at 37° C. for 30 minutes. Then, the absorbance was measured at 517 nm using a spectrophotometer.\nFirst, in order to measure DPPH radical scavenging activity of the Lithospermum erythrorhizon extract, 1.9 ml of 0.2 mM DPPH solution (99.5% ethanol) was added to 0.1 ml of solutions (control: 99.5% ethanol) in which the concentrated dried material of each Lithospermum erythrorhizon material was prepared at 7 concentrations of 10, 20, 40, 80, 160, 320 and 640 μg/ml, respectively. The mixture was shaken with a vortex mixer for 10 seconds and then incubated at 37° C. for 30 minutes. Then, the absorbance was measured at 517 nm using a spectrophotometer."}, "p38": {"tested_on": "p38", "assay": "Western blotting of LPS-induced p38 phosphorylation in BV2 cells", "assay_type": "cell-based, mouse", "method": "BV2 cells were placed in a 6-well plate at 7.5×10^5 cells/well, and stabilized at 37° C. and 5.0% CO2 for 12 hours. After that, LPS and the Fomes fomentarius CHCl3 fractions, the nonadecanone (2-Nonadecanone) or the docosenol (cis-13-Docosenol) compounds were placed according to groups and were incubated for 1 hour. The cell culture was collected and used for cytokine analysis. All the cell culture was removed, and then 1 ml of dPBS was dispensed to each well to wash and remove the wells. 200 μl of the lysis buffer was dispensed per well and the cells attached to the bottom of the well were removed with a cell scriper, and then were slowly mixed and reacted for […] on ice at 4° C. The cells were removed with a scriper again and all the lysis solution was collected. The collected lysis solution was centrifuged at 15,000 rpm for 15 minutes at 4° C. so that only the supernatant was collected. In order to plot standard curves for protein quantification, a standard BSA solution ([…]) and a dilution were prepared in which bradford solution and D.W. were diluted with 4:1. After the bradford dilution was dispensed in each 200 μl to 96-well, the standard BSA solution and the cell lysis supernatant were dispersed in a volume of 10 μl per well, and then they were mixed by pipetting. After 10 minutes, the protein was quantitated by measuring the absorbance at 595 nm in a reader. The subsequent procedures were carried out in the same manner as in the quantitative analysis of the protein of Example 3-3."}},
  "data": [
    {"smiles": "CCCCCCCC/C=C\\CCCCCCCCCCCCO", "note": "[docosenol, cis-13-Docosenol]", "values": [
      {"measurement": "DPPH radical scavenging activity (% antioxidant activity)", "setting": "[1]; 10 μg/mL", "value": "1.3±0.4", "unit": "%"},
      {"measurement": "DPPH radical scavenging activity (% antioxidant activity)", "setting": "[1]; 20 μg/mL", "value": "2.6±0.2", "unit": "%"},
      {"measurement": "DPPH radical scavenging activity (% antioxidant activity)", "setting": "[1]; 40 μg/mL", "value": "5.8±0.6", "unit": "%"},
      {"measurement": "DPPH radical scavenging activity (% antioxidant activity)", "setting": "[1]; 80 μg/mL", "value": "7.7±0.6", "unit": "%"},
      {"measurement": "DPPH radical scavenging activity (% antioxidant activity)", "setting": "[1]; 160 μg/mL", "value": "6.6±0.7", "unit": "%"},
      {"measurement": "DPPH radical scavenging activity (% antioxidant activity)", "setting": "[1]; 320 μg/mL", "value": "8.8±1.1", "unit": "%"},
      {"measurement": "DPPH radical scavenging activity (% antioxidant activity)", "setting": "[1]; 640 μg/mL", "value": "10.6±0.9", "unit": "%"},
      {"measurement": "p-p38/p-38 ratio (%), expression ratio (vehicle 100%)", "setting": "p38; 5 μg/ml", "value": "about 69%"},
      {"measurement": "p-p38/p-38 ratio (%), expression ratio (vehicle 100%)", "setting": "p38; 20 μg/ml", "value": "about 48%"},
      {"measurement": "p-p38/p-38 ratio (%), expression ratio (vehicle 100%)", "setting": "p38; 50 μg/ml", "value": "about 36%"},
      {"measurement": "p-p38/p-38 ratio (%), expression ratio (vehicle 100%)", "setting": "p38; 100 μg/ml", "value": "about 25%"}
    ]},
    {"smiles": "CCCCCCCCCCCCCCCCCC(C)=O", "note": "[nonadecanone, 2-Nonadecanone]", "values": [
      {"measurement": "DPPH radical scavenging activity (% antioxidant activity)", "setting": "[1]; 10 μg/mL", "value": "5.6±0.9", "unit": "%"},
      {"measurement": "DPPH radical scavenging activity (% antioxidant activity)", "setting": "[1]; 20 μg/mL", "value": "8.9±0.8", "unit": "%"},
      {"measurement": "DPPH radical scavenging activity (% antioxidant activity)", "setting": "[1]; 40 μg/mL", "value": "11.6±1.1", "unit": "%"},
      {"measurement": "DPPH radical scavenging activity (% antioxidant activity)", "setting": "[1]; 80 μg/mL", "value": "13.5±1.4", "unit": "%"},
      {"measurement": "DPPH radical scavenging activity (% antioxidant activity)", "setting": "[1]; 160 μg/mL", "value": "14.6±1.0", "unit": "%"},
      {"measurement": "DPPH radical scavenging activity (% antioxidant activity)", "setting": "[1]; 320 μg/mL", "value": "16.8±2.1", "unit": "%"},
      {"measurement": "DPPH radical scavenging activity (% antioxidant activity)", "setting": "[1]; 640 μg/mL", "value": "20.5±1.8", "unit": "%"},
      {"measurement": "p-p38/p-38 ratio (%), expression ratio (vehicle 100%)", "setting": "p38; 5 μg/ml", "value": "about 75%"},
      {"measurement": "p-p38/p-38 ratio (%), expression ratio (vehicle 100%)", "setting": "p38; 20 μg/ml", "value": "about 54%"},
      {"measurement": "p-p38/p-38 ratio (%), expression ratio (vehicle 100%)", "setting": "p38; 50 μg/ml", "value": "about 42%"},
      {"measurement": "p-p38/p-38 ratio (%), expression ratio (vehicle 100%)", "setting": "p38; 100 μg/ml", "value": "about 29%"}
    ]}
  ]
}
